Inconclusive results and toxic doses are left out.
System: L1210 leukemia ip in BDF1 mice, survival T/C
Test: NCI In Vivo Anticancer Drug Screen. Data for tumor model L1210 Leukemia (intraperitoneal) in B6D2F1 (BDF1) mice
Settings: endpoint: mean survival time, higher = longer survival
Method in brief: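 Tumor cells were implanted, animals were treated, and survival was followed. The result divides the treated measurement by the vehicle-control measurement.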

[1] = dose: 50.0 mg/kg/injection, schedule: Q04DX003 (ip), vehicle: saline with Tween-80
[2] = dose: 100.0 mg/kg/injection, schedule: Q01DX001 (ip), vehicle: saline
[3] = dose: 200.0 mg/kg/injection, schedule: Q01DX001 (ip), vehicle: saline
[4] = dose: 400.0 mg/kg/injection, schedule: Q01DX001 (ip), vehicle: saline
[5] = dose: 100.0 mg/kg/injection, schedule: Q01DX Z (ip), vehicle: saline
[6] = dose: 100.0 mg/kg/injection, schedule: Q01DX009 (ip), vehicle: saline with Tween-80
[7] = dose: 100.0 mg/kg/injection, schedule: Q01DX009 (ip), vehicle: saline
[8] = dose: 400.0 mg/kg/injection, schedule: Q01DX009 (ip), vehicle: saline with Tween-80
[9] = dose: 100.0 mg/kg/injection, schedule: Q01DX001 (ip), vehicle: Klucel (hydroxypropylcellulose) (HPC)
[10] = dose: 100.0 mg/kg/injection, schedule: Q04DX003 (ip), vehicle: Klucel (hydroxypropylcellulose) (HPC)
[11] = dose: 200.0 mg/kg/injection, schedule: Q01DX001 (ip), vehicle: Klucel (hydroxypropylcellulose) (HPC)
[12] = dose: 200.0 mg/kg/injection, schedule: Q04DX003 (ip), vehicle: Klucel (hydroxypropylcellulose) (HPC)
[13] = dose: 400.0 mg/kg/injection, schedule: Q01DX001 (ip), vehicle: Klucel (hydroxypropylcellulose) (HPC)
[14] = dose: 400.0 mg/kg/injection, schedule: Q04DX003 (ip), vehicle: Klucel (hydroxypropylcellulose) (HPC)
[15] = dose: 200.0 mg/kg/injection, schedule: Q01DX009 (ip), vehicle: saline with Tween-80
[16] = dose: 100.0 mg/kg/injection, schedule: Q04DX003 (ip), vehicle: saline with Tween-80
[17] = dose: 200.0 mg/kg/injection, schedule: Q04DX003 (ip), vehicle: saline with Tween-80
[18] = dose: 100.0 mg/kg/injection, schedule: Q04DX003 (ip), vehicle: saline
[19] = dose: 200.0 mg/kg/injection, schedule: Q04DX003 (ip), vehicle: saline
[20] = dose: 400.0 mg/kg/injection, schedule: Q04DX003 (ip), vehicle: saline
[21] = dose: 400.0 mg/kg/injection, schedule: Q04DX003 (ip), vehicle: saline with Tween-80
[22] = dose: 100.0 mg/kg/injection, schedule: Q01DX009 (ip), vehicle: Klucel (hydroxypropylcellulose) (HPC)
[23] = dose: 200.0 mg/kg/injection, schedule: Q01DX009 (ip), vehicle: Klucel (hydroxypropylcellulose) (HPC)
[24] = dose: 100.0 mg/kg/injection, schedule: Q01DX001 (sc), vehicle: steriod suspending solution
[25] = dose: 200.0 mg/kg/injection, schedule: Q01DX001 (sc), vehicle: steriod suspending solution
[26] = dose: 400.0 mg/kg/injection, schedule: Q01DX001 (sc), vehicle: steriod suspending solution
[27] = dose: 50.0 mg/kg/injection, schedule: Q01DX009 (ip), vehicle: Klucel (hydroxypropylcellulose) (HPC)

CC(C)C(CNC1=NCCN1)c1cccc2ccccc12 (stereo unspecified)
T/C (dose: 12.5 mg/kg/injection, schedule: Q04DX003 (ip), vehicle: saline with Tween-80): 93 % of control
T/C (dose: 25.0 mg/kg/injection, schedule: Q04DX003 (ip), vehicle: saline with Tween-80): 93 % of control
T/C [1]: 119 % of control

CC(NCl)c1ccccc1 (stereo unspecified)
T/C [2]: 95 % of control
T/C [3]: 100 % of control
T/C [4]: 100 % of control

Cn1c(=O)c2c(nc(N/N=C/c3cccc4ccccc34)n2C)n(C)c1=O
T/C (dose: 44.0 mg/kg/injection, schedule: Q01DX Z (ip), vehicle: saline): 90 % of control
T/C (dose: 66.0 mg/kg/injection, schedule: Q01DX Z (ip), vehicle: saline): 94 % of control
T/C [5]: 92 % of control

CN(N=O)C(=O)NCC1OC(OC2(CO)OC(CNC(=O)N(C)N=O)C(O)C2O)C(O)C(O)C1O (stereo unspecified)
T/C (dose: 50.0 mg/kg/injection, schedule: Q01DX009 (ip), vehicle: saline with Tween-80): 107 % of control
T/C (dose: 50.0 mg/kg/injection, schedule: Q01DX009 (ip), vehicle: saline): 91 % of control
T/C [6]: 121 % of control
T/C [7]: 109 % of control
T/C [8]: 154 % of control

CCC1CC(O)c2ccccc2O1 (stereo unspecified)
T/C (dose: 100.0 mg/kg/injection, schedule: Q01DX001 (ip), vehicle: other): 103 % of control
T/C (dose: 200.0 mg/kg/injection, schedule: Q01DX001 (ip), vehicle: other): 95 % of control
T/C (dose: 400.0 mg/kg/injection, schedule: Q01DX001 (ip), vehicle: other): 91 % of control

O=C1/C(=C/c2ccco2)CC/C1=C\c1ccco1
T/C [9]: 93 % of control
T/C [10]: 94 % of control
T/C [11]: 101 % of control
T/C [12]: 96 % of control
T/C [13]: 95 % of control
T/C [14]: 96 % of control

CCC(C)C(NC(=O)OCc1ccccc1)C(=O)ON1C(=O)CCC1=O (stereo unspecified)
T/C [6]: 94 % of control
T/C [15]: 96 % of control

CN(C)C(=O)NNC(=O)c1ccc(Cl)cc1
T/C [16]: 100 % of control
T/C [17]: 95 % of control

CC1(C)CC(N=Cc2ccccc2O)CC(C)(C)N1O.CC1(C)CC(N=Cc2ccccc2O)CC(C)(C)N1O.[Zn]
T/C (dose: 25.0 mg/kg/injection, schedule: Q04DX002 (ip), vehicle: Klucel (hydroxypropylcellulose) (HPC)): 91 % of control
T/C (dose: 50.0 mg/kg/injection, schedule: Q04DX002 (ip), vehicle: Klucel (hydroxypropylcellulose) (HPC)): 91 % of control
T/C (dose: 100.0 mg/kg/injection, schedule: Q04DX002 (ip), vehicle: Klucel (hydroxypropylcellulose) (HPC)): 94 % of control

OC1(O)COC(c2ccccc2)OC1
T/C [7]: 96 % of control
T/C [10]: 105 % of control
T/C (dose: 200.0 mg/kg/injection, schedule: Q01DX009 (ip), vehicle: saline): 102 % of control
T/C [12]: 101 % of control
T/C (dose: 400.0 mg/kg/injection, schedule: Q01DX009 (ip), vehicle: saline): 93 % of control
T/C [14]: 99 % of control

CCOC(=O)c1c(C)[nH]oc1=O
T/C [18]: 111 % of control
T/C [19]: 102 % of control
T/C [20]: 96 % of control

CC(=O)Oc1ccc(C2C3=C(COC3=O)CC3=C2C(=O)OC3)cc1
T/C [6]: 104 % of control
T/C [16]: 96 % of control
T/C [15]: 100 % of control
T/C [17]: 97 % of control
T/C [8]: 96 % of control
T/C [21]: 96 % of control

CC(C)(C)NCc1cc(C(C)(C)C)cc(-c2ccccc2)c1O
T/C [2]: 100 % of control
T/C [18]: 97 % of control
T/C [3]: 101 % of control
T/C [19]: 90 % of control
T/C [4]: 99 % of control

COc1ccc(Nc2nc(N)nc(N)c2N)cc1
T/C [5]: 87 % of control

O=C1OC(=O)c2c1ccc(Br)c2Br
T/C [22]: 102 % of control
T/C [10]: 101 % of control
T/C [23]: 96 % of control
T/C [12]: 98 % of control
T/C (dose: 400.0 mg/kg/injection, schedule: Q01DX009 (ip), vehicle: Klucel (hydroxypropylcellulose) (HPC)): 89 % of control
T/C [14]: 93 % of control

O=S(=O)(NC/C=C/c1ccccc1)c1ccccc1
T/C [9]: 96 % of control
T/C [11]: 103 % of control
T/C [13]: 102 % of control

CCCCNc1c(NCCCC)c(=O)c1=O
T/C [10]: 90 % of control
T/C [12]: 90 % of control
T/C [14]: 91 % of control

CN(C)C(=O)C1C2CCC(C3CC32)C1C(=O)N(C)C (stereo unspecified)
T/C (dose: 75.0 mg/kg/injection, schedule: Q01DX009 (ip), vehicle: saline): 95 % of control
T/C [18]: 106 % of control
T/C (dose: 150.0 mg/kg/injection, schedule: Q01DX009 (ip), vehicle: saline): 97 % of control
T/C [19]: 106 % of control
T/C (dose: 300.0 mg/kg/injection, schedule: Q01DX009 (ip), vehicle: saline): 95 % of control
T/C [20]: 103 % of control

C1[CH2][Hg][CH2]CO1
T/C (dose: 100.0 mg/kg/injection, schedule: Q04DX002 (ip), vehicle: saline): 100 % of control
T/C (dose: 200.0 mg/kg/injection, schedule: Q04DX002 (ip), vehicle: saline): 100 % of control

CCCCCCCCCCCCOC(=O)c1cc(O)c(O)c(O)c1
T/C (dose: 75.0 mg/kg/injection, schedule: Q01DX001 (ip), vehicle: acetone): 103 % of control

CC(=O)[C@@]1(O)CC[C@H]2[C@@H]3C[C@H](C)C4=CC(=O)C=C[C@]4(C)[C@@]3(F)[C@@H](O)C[C@@]21C
T/C [24]: 103 % of control
T/C (dose: 100.0 mg/kg/injection, schedule: Q01DX009 (sc), vehicle: steriod suspending solution): 115 % of control
T/C [25]: 100 % of control
T/C (dose: 200.0 mg/kg/injection, schedule: Q01DX009 (sc), vehicle: steriod suspending solution): 108 % of control
T/C [26]: 103 % of control
T/C (dose: 400.0 mg/kg/injection, schedule: Q01DX009 (sc), vehicle: steriod suspending solution): 111 % of control
T/C (dose: 800.0 mg/kg/injection, schedule: Q01DX001 (sc), vehicle: steriod suspending solution): 103 % of control
T/C (dose: 800.0 mg/kg/injection, schedule: Q01DX009 (sc), vehicle: steriod suspending solution): 101 % of control

OCCN1CCN(C(=S)[S-])CC1.OCCN1CCN(C(=S)[S-])CC1.[Zn]
T/C (dose: 10.0 mg/kg/injection, schedule: Q04DX003 (ip), vehicle: saline): 93 % of control
T/C (dose: 20.0 mg/kg/injection, schedule: Q04DX003 (ip), vehicle: saline): 90 % of control

COc1ccc(OCCOC(=O)Nc2ccc(C)cc2[N+](=O)[O-])cc1
T/C [27]: 97 % of control
T/C [22]: 90 % of control
T/C [10]: 103 % of control
T/C [23]: 90 % of control
T/C [12]: 103 % of control
T/C [14]: 100 % of control

Cn1c(=O)c(CC(C(=O)O)C(=O)O)nc2ccccc21
T/C [27]: 93 % of control
T/C [22]: 93 % of control
T/C [23]: 100 % of control

O=C(Nc1cc(S(=O)(=O)F)ccc1Cl)Oc1ccc([N+](=O)[O-])cc1
T/C [16]: 102 % of control
T/C [17]: 97 % of control
T/C [21]: 100 % of control

CC(=O)OC1CCC2(C)C(=CCC3C2CCC2(C)C(c4cccc(=O)o4)CCC32)C1 (stereo unspecified)
T/C [24]: 100 % of control
T/C [25]: 102 % of control
T/C [26]: 93 % of control

CCCCOC1NC(=O)NC(=O)C1=[N+]=[N-] (stereo unspecified)
T/C [1]: 98 % of control
T/C [17]: 102 % of control

CNc1nc[nH]c(=O)c1NC(=O)c1ccccc1
T/C (dose: 45.0 mg/kg/injection, schedule: Q01DX001 (ip), vehicle: Klucel (hydroxypropylcellulose) (HPC)): 103 % of control
T/C (dose: 90.0 mg/kg/injection, schedule: Q01DX001 (ip), vehicle: Klucel (hydroxypropylcellulose) (HPC)): 95 % of control
T/C (dose: 180.0 mg/kg/injection, schedule: Q01DX001 (ip), vehicle: Klucel (hydroxypropylcellulose) (HPC)): 92 % of control

Cl/C=C(\Cl)CCl
T/C [6]: 100 % of control
T/C [18]: 97 % of control
T/C [19]: 102 % of control
T/C [20]: 105 % of control

Source: PubChem BioAssay AID248 (DTP/NCI, 2004)
